The results in this text go back to ChEMBL document CHEMBL5537154, “Smart glypican-3-targeting peptide-chlorin e6 conjugates for targeted photodynamic therapy of hepatocellular carcinoma” (Eur J Med Chem, 2024).

One series concerns the target chymotrypsin (Homo sapiens, UniProt P17538+P40313+Q6GPI1+Q99895). Put plainly: Stability of compound assessed as chymotrypsin (unknown origin)-mediated compound degradation in PBS at pH 7.4 by measuring half life. The format is ADME, protein assay.
The test system of series [1] is HeLa. Put plainly: Antiproliferative activity against human HeLa cells under 10 J/cm2 light irradiation at 660 nm by CCK8 assay. The format is functional, cell-based. To be noted: light or radiation study. A general note: Tetrazolium assays rely on reduction of a dye to a coloured formazan, in cell work by metabolically active cells.
In series [2] the test system is HepG2. Put plainly: Antiproliferative activity against human HepG2 cells under dark condition by CCK8 assay. The format is functional, cell-based.
A short description of series [3]: Photostability of compound under 250 mW/cm2 light irradiation at 660 nm incubated for 10 mins by UV spectrophotometry. The format is physicochemical. To be noted: 0.66 µM.
Series [4] deals with HeLa. The series is described as follows: Antiproliferative activity against human HeLa cells under dark condition by CCK8 assay. The format is functional, cell-based.
Series [5] deals with Huh-7. Put plainly: Antiproliferative activity against human Huh-7 cells under dark condition by CCK8 assay. The format is functional, cell-based.
Series [6] is described as follows: Partition coefficient, logP of compound. The format is physicochemical. Conditions: octanol/water; call rule not given here.
Series [7] concerns HepG2. Put plainly: Antiproliferative activity against human HepG2 cells under 10 J/cm2 light irradiation at 660 nm by CCK8 assay. The format is functional, cell-based. To be noted: HepG2, light or radiation study.
For series [8], the system named is MCF7. The series is described as follows: Antiproliferative activity against human MCF7 cells under 10 J/cm2 light irradiation at 660 nm by CCK8 assay. The format is functional, cell-based. To be noted: MCF7, light or radiation study.
Series [9] concerns MCF7. Put plainly: Antiproliferative activity against human MCF7 cells under dark condition by CCK8 assay. The format is functional, cell-based.
A short description of series [10]: Antiproliferative activity against human HUVEC cells under dark condition by CCK8 assay. The format is toxicity, cell-based.
Series [11] can be described thus: Antiproliferative activity against human HUVEC cells under 10 J/cm2 light irradiation at 660 nm by CCK8 assay. The format is toxicity, cell-based.
Series [12] has as its system Huh-7. The series is described as follows: Antiproliferative activity against human Huh-7 cells under 10 J/cm2 light irradiation at 660 nm by CCK8 assay. The format is functional, cell-based. Conditions: Huh-7, light or radiation study.
The nature of series [13]: Aggregation property of compound in PBS. Conditions: buffer. The format is physicochemical.

In general, half-life refers to the time in which the quantity being followed falls by half. As a reminder, the IC50 is the concentration needed to halve the response being measured. Lower therefore signals greater potency. As a reminder, the logP is a log measure of how a compound divides between an organic and an aqueous phase. Low readings indicate a more hydrophilic compound, high ones a more lipophilic compound.

Peptide text beside a SMILES is read from it. A value given as a limit tells only on which side of the number the result lay.

As to H-DHLASLWWGTEL-OH, on chymotrypsin, the half-life is 1.1 h.
As for `C=Cc1c(C)c2cc3nc(c(CC(=O)O)c4[nH]c(cc5nc(cc1[nH]2)C(C)=C5CC)c(C)c4C(=O)NCCCC(=O)N[C@@H](CCCCN)C(=O)N[C@@H](CCCCN)C(=O)N[C@@H](CCCCN)C(=O)N[C@@H](CCCNC(=N)N)C(=O)N[C@@H](CC(C)C)C(=O)N[C@@H](CC(N)=O)C(=O)N[C@H](C(=O)NCC(=O)NCC(=O)N[C@H](C(=O)N[C@@H](Cc1ccc(O)cc1)C(=O)N[C@@H](Cc1ccccc1)C(=O)N[C@@H](CC(C)C)C(=O)N[C@H](C(=O)N[C@H](C(=O)N[C@@H](CCCNC(=N)N)C(=O)N[C@@H](CCC(N)=O)C(=O)O)[C@@H](C)O)[C@@H](C)O)[C@@H](C)O)C(C)C)[C@@H](CCC(=O)O)[C@@H]3C` (HELM PEPTIDE1{[C=Cc1c(C)c2cc3nc(c(CC(=O)O)c4[nH]c(cc5nc(cc1[nH]2)C(C)=C5CC)c(C)c4C(=O)[*:2])[C@@H](CCC(=O)O)[C@@H]3C].[O=C(CCCN[*:1])[*:2]].K.K.K.R.L.N.V.G.G.T.Y.F.L.T.T.R.Q}$$$$V2.0), the IC50 with HeLa [1] is 570 nM; in the series with HepG2 [2], more than 200000 nM; in the series on HeLa [4] it was more than 200000 nM; in the series with Huh-7 [5], more than 200000 nM; in the series with HepG2 [7], 330 nM; with MCF7 [8], 790 nM. Further, the IC50 was more than 200000 nM in the series with MCF7 [9], more than 200000 nM in series [10], 380 nM in [11] and 340 nM with Huh-7 [12]. Also, in [3], the Stability entry is on record as “Stable”. For the same molecule, at chymotrypsin, the half-life is 1.3 h. In series [6], this molecule registered a logP of -0.5. The Activity result in series [13] is recorded as “Not Active”.
Consider `C=Cc1c(C)c2cc3nc(c(CC(=O)O)c4[nH]c(cc5nc(cc1[nH]2)C(C)=C5CC)c(C)c4C(=O)NCCCC(=O)N[C@@H](CC(=O)O)C(=O)N[C@@H](Cc1ccc(O)cc1)C(=O)N[C@@H](CCC(=O)O)C(=O)N[C@@H](CCSC)C(=O)N[C@@H](Cc1cnc[nH]1)C(=O)N[C@@H](CC(C)C)C(=O)N[C@@H](Cc1c[nH]c2ccccc12)C(=O)N[C@@H](Cc1c[nH]c2ccccc12)C(=O)NCC(=O)N[C@H](C(=O)N[C@@H](CCC(=O)O)C(=O)N[C@@H](CC(C)C)C(=O)O)[C@@H](C)O)[C@@H](CCC(=O)O)[C@@H]3C` (HELM PEPTIDE1{[C=Cc1c(C)c2cc3nc(c(CC(=O)O)c4[nH]c(cc5nc(cc1[nH]2)C(C)=C5CC)c(C)c4C(=O)[*:2])[C@@H](CCC(=O)O)[C@@H]3C].[O=C(CCCN[*:1])[*:2]].D.Y.E.M.H.L.W.W.G.T.E.L}$$$$V2.0), for which the IC50 with HeLa [1] is 4700 nM; in the series with HepG2 [2] it was more than 200000 nM; in the series on HeLa [4] it was more than 200000 nM; with Huh-7 [5] it was more than 200000 nM; with HepG2 [7], 1700 nM; in the series on MCF7 [8], 5300 nM. The IC50 is more than 200000 nM with MCF7 [9], more than 200000 nM in [10], 9800 nM in series [11] and 1900 nM with Huh-7 [12]. Moreover, the Stability result in [3] was “Stable”. In addition, at chymotrypsin, the half-life is 1.3 h. This molecule registered a logP in [6] of 1.5. Besides, in [13], the result was Active.
On to `C=Cc1c(C)c2cc3nc(c(CC(=O)O)c4[nH]c(cc5nc(cc1[nH]2)C(C)=C5CC)c(C)c4C(=O)NCCCC(=O)N[C@@H](CCCNC(=N)N)C(=O)N[C@@H](CC(C)C)C(=O)N[C@@H](CC(N)=O)C(=O)N[C@H](C(=O)NCC(=O)NCC(=O)N[C@H](C(=O)N[C@@H](Cc1ccc(O)cc1)C(=O)N[C@@H](Cc1ccccc1)C(=O)N[C@@H](CC(C)C)C(=O)N[C@H](C(=O)N[C@H](C(=O)N[C@@H](CCCNC(=N)N)C(=O)N[C@@H](CCC(N)=O)C(=O)O)[C@@H](C)O)[C@@H](C)O)[C@@H](C)O)C(C)C)[C@@H](CCC(=O)O)[C@@H]3C` (HELM PEPTIDE1{[C=Cc1c(C)c2cc3nc(c(CC(=O)O)c4[nH]c(cc5nc(cc1[nH]2)C(C)=C5CC)c(C)c4C(=O)[*:2])[C@@H](CCC(=O)O)[C@@H]3C].[O=C(CCCN[*:1])[*:2]].R.L.N.V.G.G.T.Y.F.L.T.T.R.Q}$$$$V2.0), for which the concentration for half-maximal inhibition (IC50) is 720 nM in the series on HeLa [1]; more than 100000 nM with HepG2 [2]; more than 100000 nM with HeLa [4]; more than 100000 nM with Huh-7 [5]; 310 nM in the series on HepG2 [7]; 880 nM in the series with MCF7 [8]. For the same molecule, the IC50 in the series with MCF7 [9] was more than 100000 nM; in series [10], more than 200000 nM; in [11], 2100 nM; in the series on Huh-7 [12] it was 250 nM. In addition, in [3], the Stability result is reported as “Stable”. The half-life at chymotrypsin is 2.4 h. Besides, the logP in [6] was determined as 0.8. The outcome in series [13] was Active.
